# Data reported in US20120156333A1, “STABILIZED BETA CRYPTOXANTHIN-CONTAINING WATER AND THE USE THEREOF” (ARKRAY, INC., priority 2010, published 2012).
# Tests used:
# Type in all cases: physicochemical
# [1] = β cryptoxanthin stabilizing test, Example 2A (water from Citrus unshiu powder with additive L-ascorbic acid, stored at 40° C.); conditions: 0.0022 parts by mass β cryptoxanthin (powder) in water
# Experimental: (§1) The prepared powder derived from Citrus unshiu and water were mixed. Thus, a mixed solution was prepared. The mixing was conducted so that a mass ratio between β cryptoxanthin contained in the powder and the mixed water became 1 mg:50 g (0.0022 parts by mass of β cryptoxanthin with respect to 100 parts by mass of finally obtained β cryptoxanthin-containing water). Vitamin C (L-ascorbic acid) was added to the mixed solution, which was then mixed by stirring. Thus, β cryptoxanthin-containing waters were prepared. The total amounts of L-ascorbic acid in the respective β cryptoxanthin-containing waters were set to 0.005, 0.01, 0.02, 0.1, and 0.2 parts by mass with respect to 100 parts by mass of entire β cryptoxanthin-containing water by adding vitamin C. 50 g of five types of the β cryptoxanthin-containing waters were filled in the respective brown bottles. Thereafter, the brown bottles were subjected to a heat sterilization treatment under the condition at 90° C. for 30 minutes, which were then stored at 40° C. Sampling was conducted on a storage start date and after two months from the same. The respective amounts of β cryptoxanthin in samples were measured in the same manner as in Example 1A. Then, assuming that the amount of β cryptoxanthin on the storage start date was 100%, residual ratios of β cryptoxanthin were determined.
# [2] = Storage stability at 20° C. and 25° C. calculated by Arrhenius equation, Example 4B; conditions: for possible storage period in a stable state: β cryptoxanthin-containing waters of Examples 1B, 2B, and 3B
# Experimental: With respect to the β cryptoxanthin-containing waters prepared in Examples 1B, 2B, and 3B, storage stability at 20° C. and 25° C. was determined. Determination of the storage stability was performed in the same manner as in Example 4A.
# [3] = β cryptoxanthin stabilizing test, Example 1A (water from Citrus unshiu paste with additive L-ascorbic acid, stored at 40° C.); conditions: 0.002 parts by mass β cryptoxanthin (paste) in water
# Experimental: The prepared paste derived from Citrus unshiu and water were mixed. Thus, a mixed solution was prepared. The mixing was conducted so that a mass ratio between β cryptoxanthin contained in the paste and the mixed water became 1 mg:50 g (0.002 parts by mass of β cryptoxanthin with respect to 100 parts by mass of finally obtained β cryptoxanthin-containing water). Vitamin C (L-ascorbic acid) was added to the mixed solution, which was then mixed by stirring. Thus, β cryptoxanthin-containing waters were prepared. The total amounts of L-ascorbic acid in the respective β cryptoxanthin-containing waters were set to 0.005, 0.01, 0.02, 0.05, 0.1, and 0.2 parts by mass with respect to 100 parts by mass of entire β cryptoxanthin-containing water by adding vitamin C. As a blank, a β cryptoxanthin-containing water was prepared in the same manner as described above except that vitamin C (L-ascorbic acid) was not added to the mixed solution. 50 g of six types of the β cryptoxanthin-containing waters and 50 g of the f3-cryptoxanthin-containing water as a blank were filled in the respective brown bottles. Thereafter, the brown bottles were subjected to a heat sterilization treatment under the condition at 90° C. for 30 minutes, which were then stored at 40° C. Sampling was conducted on a storage start date, after one month from the storage start date, and after two months from the same. The respective amounts of β cryptoxanthin in samples were measured by HPLC as shown below. Then, assuming that the amount of β cryptoxanthin on the storage start date was 100%, residual ratios of β cryptoxanthin were determined. The samples were treated at 70° C. for 30 minutes under alkaline conditions before being subjected to HPLC. By this treatment, β cryptoxanthin in the samples was saponified and was converted to a free form. After the treatment, the samples were subjected to a liquid-liquid extraction and were then concentrated. Thus, samples for HPLC were obtained. In the measurements of the amounts of β cryptoxanthin by HPLC, a HPLC system to which a column (J'sphere ODS-M80 (product name) with 250×4.6 mm I.D, produced by YMC Co., Ltd.) had been connected was used, and absorbances at 455 nm were measured by a UV detector ([…] (product name), produced by Hitachi Ltd.). Conditions of the column were as follows. • Mobile phase: acetonitrile/tetrahydrofuran (volume ratio: 95/5) containing 0.1% acetic acid and 50 ppm of α-tocopherol • Flow rate: 1.0 mL/minute • Column temperature: 55° C.
# [4] = β cryptoxanthin stabilizing test, Example 3A (water from Citrus unshiu concentrated liquid with additive L-ascorbic acid, stored at 40° C.); conditions: 0.0015 parts by mass β cryptoxanthin (concentrated liquid) in water
# Experimental: as §1, with “concentrated liquid” for “powder”, “(0.0015” for “(0.0022”
# [5] = additive L-ascorbic acid 0.005 parts by mass
# [6] = additive L-ascorbic acid 0.01 parts by mass
# [7] = additive L-ascorbic acid 0.02 parts by mass
# [8] = additive L-ascorbic acid 0.1 parts by mass
# [9] = additive L-ascorbic acid 0.2 parts by mass
# [10] = additive L-ascorbic acid 0 parts by mass (blank)
# [11] = additive L-ascorbic acid 0.05 parts by mass
structure (smiles),measurement,setting,value
CC1=C(/C=C/C(C)=C/C=C/C(C)=C/C=C/C=C(C)/C=C/C=C(C)/C=C/C2=C(C)C[C@@H](O)CC2(C)C)C(C)(C)CCC1 [β cryptoxanthin],Residual ratio of β cryptoxanthin Storage for two months (%),[1]; [5],62.5%
same,Residual ratio of β cryptoxanthin Storage for two months (%),[1]; [6],75.5%
same,Residual ratio of β cryptoxanthin Storage for two months (%),[1]; [7],92.0%
same,Residual ratio of β cryptoxanthin Storage for two months (%),[1]; [8],100%
same,Residual ratio of β cryptoxanthin Storage for two months (%),[1]; [9],31.9%
same,storage in a stable state at normal temperature,"[2]; Example 4B, normal temperature (20° C. to 25° C.)",two years or more
same,possible storage period in a stable state,[2]; 20° C.,about 32.7 months
same,possible storage period in a stable state,[2]; 25° C.,about 15.6 months
same,Residual ratio of β cryptoxanthin Storage for one month (%),[3]; [10],76.9%
same,Residual ratio of β cryptoxanthin Storage for two months (%),[3]; [10],29.9%
same,Residual ratio of β cryptoxanthin Storage for one month (%),[3]; [5],83.8%
same,Residual ratio of β cryptoxanthin Storage for two months (%),[3]; [5],48.8%
same,Residual ratio of β cryptoxanthin Storage for one month (%),[3]; [6],96.7%
same,Residual ratio of β cryptoxanthin Storage for two months (%),[3]; [6],78.9%
same,Residual ratio of β cryptoxanthin Storage for one month (%),[3]; [7],100%
same,Residual ratio of β cryptoxanthin Storage for two months (%),[3]; [7],100%
same,Residual ratio of β cryptoxanthin Storage for one month (%),[3]; [11],98.0%
same,Residual ratio of β cryptoxanthin Storage for two months (%),[3]; [11],99.0%
same,Residual ratio of β cryptoxanthin Storage for one month (%),[3]; [8],94.4%
same,Residual ratio of β cryptoxanthin Storage for two months (%),[3]; [8],94.7%
same,Residual ratio of β cryptoxanthin Storage for one month (%),[3]; [9],68.3%
same,Residual ratio of β cryptoxanthin Storage for two months (%),[3]; [9],31.3%
same,Residual ratio of β cryptoxanthin Storage for two months (%),[4]; [5],64.3%
same,Residual ratio of β cryptoxanthin Storage for two months (%),[4]; [6],64.9%
same,Residual ratio of β cryptoxanthin Storage for two months (%),[4]; [7],99.1%
same,Residual ratio of β cryptoxanthin Storage for two months (%),[4]; [8],100%
same,Residual ratio of β cryptoxanthin Storage for two months (%),[4]; [9],37.9%
